# According to patent US9567319B2, “Compound having higher inhibitory activity on protein kinase G and preparation method thereof” (Jenkem Technology Co., Ltd., (Tianjin), priority 2014, dated 2017):
# Assay: Test of water solubility of the compounds
# Conditions: for Volume of added water: about 0.1 g sample, water added until dissolved; for solubility: water; for water solubility, times higher than that of compound 46: relative to compound 46 (parent compound)
# Procedure: At room temperature, about 0.1 g of each sample to be tested (solid materials should be ground as powder) was added to a 10 mL cylinder with a ground glass stopper. Water was gradually added. After each addition of 0.5 mL water, the resulting solution was stirred for 10 min for mixing, and was then visually examined for the presence of any undissolved sample. If there still exists undissolved sample or undissolved portions of the sample after 10 mL water was added, the test would be continued in a 100 mL cylinder.
Compound,Volume of added water (room temperature),solubility (thermodynamic from solid),solubility (room temperature),"water solubility, times higher than that of compound 46"
"COCCOCCOCCOCCOCCOCCOCCOc1ccc(OC)c(F)c1C(=O)c1ccc(C(=O)N[C@@H]2CNC[C@H]2NC(=O)c2ccc3cn[nH]c3c2)cc1.Cl [JK-M07M, (3R,4R)-3-{4-[2-fluoro-3-methoxy-6-(2,5,8,11,14,17,20-heptaoxadocosan-22-oxy)]benzoyl}benzamido-4-(1H-indazole-6-carboxamido)pyrrolidine hydrochloride]",7.5 mL,,13300 µg/mL,
"CCCOCCOCCOc1ccc(F)c(F)c1C(=O)c1ccc(C(=O)N[C@@H]2CNC[C@H]2NC(=O)c2ccc3cn[nH]c3c2)cc1.Cl [JK-02P, (3R,4R)-3-{4-[2,3-difluoro-6-(3,6-dioxanonan-1-oxy)]benzoyl}benzamido-4-(1H-indazole-6-carboxamido)pyrrolidine hydrochloride]",22.5 mL,4400 µg/mL,,about 3 times
"COCCOCCOCCOc1ccc(F)c(F)c1C(=O)c1ccc(C(=O)N[C@@H]2CNC[C@H]2NC(=O)c2ccc3cn[nH]c3c2)cc1.Cl [JK-03M, (3R,4R)-3-{4-[2,3-difluoro-6-(2,5,8-trioxadecan-10-oxy)]benzoyl}benzamido-4-(1H-indazole-6-carboxamido)pyrrolidine hydrochloride]",16.5 mL,,6100 µg/mL,about 4 times

# Continued, in another order:
Volume of added water (room temperature),solubility (thermodynamic from solid),Compound,solubility (room temperature),"water solubility, times higher than that of compound 46"
22.0 mL,4500 µg/mL,"CCCOCCOCCOc1ccc(OC)c(F)c1C(=O)c1ccc(C(=O)N[C@@H]2CNC[C@H]2NC(=O)c2ccc3cn[nH]c3c2)cc1.Cl [JK-M02P, (3R,4R)-3-{4-[2-fluoro-3-methoxy-6-(4,7-dioxanonan-9-oxy)]benzoyl}benzamido-4-(1H-indazole-6-carboxamido)pyrrolidine hydrochloride]",,
12.5 mL,8000 µg/mL,"COc1ccc(OCCOCCO)c(C(=O)c2ccc(C(=O)N[C@@H]3CNC[C@H]3NC(=O)c3ccc4cn[nH]c4c3)cc2)c1F.Cl [JK-M02H, (3R,4R)-3-{4-[2-fluoro-3-methoxy-6-(5-hydroxy-3-oxapentan-1-oxy)]benzoyl}benzamido-4-(1H-indazole-6-carboxamido)pyrrolidine hydrochloride]",,
